The values that follow come from patent publication EP4583874B1, “MULTITARGET NUCLEAR RECEPTOR LIGANDS BASED ON 2-(4-(QUINOLIN-2-YLOXY)PHENOXY)PROPANOIC ACID AND 2-(4-(QUINOXALIN-2-YLOXY)PHENOXY)PROPANOIC ACID FOR THE TREATMENT OF METABOLIC AND LIVER DISEASES” (CHARLES UNIVERSITY, FACULTY OF PHARMACY IN HRADEC KRALOVE, priority 2022, dated 2024).

Format in all cases: cell-based
Assay [1] has as its target T1, human PPARγ (Homo sapiens, UniProt P37231).
T1 construct: DNA constructs encoding human LBD domains of human PPARα, PPARγ, of LXRα (pGAL4-PPARα, pGAL4-PPARγ, pGAL4-LXRα); expressed in transfected cells; host or cells: HepG2
T1 sequence (P37231 238-503 limits assumed): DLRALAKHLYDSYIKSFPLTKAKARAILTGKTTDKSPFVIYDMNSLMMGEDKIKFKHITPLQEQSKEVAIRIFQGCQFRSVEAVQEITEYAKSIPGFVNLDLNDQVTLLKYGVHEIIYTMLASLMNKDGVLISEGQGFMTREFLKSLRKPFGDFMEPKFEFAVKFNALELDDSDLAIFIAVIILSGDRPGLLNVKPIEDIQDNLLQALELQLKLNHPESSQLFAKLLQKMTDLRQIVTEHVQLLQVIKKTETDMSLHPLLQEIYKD
Briefly: PPARγ luciferase reporter gene assay (pGAL4-PPARγ / pGL5-UAS 9x) in HepG2 cells. To be noted: HepG2, 24 h. In general terms: A reporter such as luciferase makes a cellular process visible.

Assay [2] addresses T2, human PPARα (Homo sapiens, UniProt Q07869).
T2 construct: DNA constructs encoding human LBD domains of human PPARα, PPARγ, of LXRα (pGAL4-PPARα, pGAL4-PPARγ, pGAL4-LXRα); expressed in transfected cells; host or cells: HepG2
T2 sequence (Q07869 239-466 limits assumed): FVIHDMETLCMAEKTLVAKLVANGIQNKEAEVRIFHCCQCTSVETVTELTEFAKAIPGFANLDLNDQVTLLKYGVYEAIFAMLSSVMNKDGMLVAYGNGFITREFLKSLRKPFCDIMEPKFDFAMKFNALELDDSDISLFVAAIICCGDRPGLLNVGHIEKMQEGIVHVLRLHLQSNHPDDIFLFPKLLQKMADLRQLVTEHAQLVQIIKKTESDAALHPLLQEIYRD
Kind of assay: PPARα responsive luciferase reporter gene assay (pGAL4-PPARα / pGL5-UAS 9x) in HepG2 cells. To be noted: relative activation to fenofibrate 10 µM (100%), HepG2, 24 h, negative value indicates inverse agonism. The text has this: Bezafibrate, GW7647 and WY14643 are known PPARα ligands. […] GW3965 is known high-affinity LXRα ligand. […]
(§1) In HepG2 cells, luciferase gene reporter assays have been performed with the transiently transfected reporter gene luciferase construct with the UAS yeast binding site interacting with GAL4 protein (pGL5-UAS 9x, Promega). DNA constructs encoding human LBD domains of human PPARα, PPARγ, of LXRα (pGAL4-PPARα, pGAL4-PPARγ, pGAL4-LXRα) have been cotransfected with the reporter construct. For FXR, FXRE-luc construct with FXR response elements upstream of Firefly luciferase has been used together with an expression construct for human FXR for HepG2 cells transfection. HepG2 cells were then treated with compounds of the invention for 24 h.

The target of assay [3] is T3, human FXR (Homo sapiens, UniProt Q96RI1).
T3 construct: expressed in transfected cells; host or cells: HepG2
T3 sequence (Q96RI1 1-486): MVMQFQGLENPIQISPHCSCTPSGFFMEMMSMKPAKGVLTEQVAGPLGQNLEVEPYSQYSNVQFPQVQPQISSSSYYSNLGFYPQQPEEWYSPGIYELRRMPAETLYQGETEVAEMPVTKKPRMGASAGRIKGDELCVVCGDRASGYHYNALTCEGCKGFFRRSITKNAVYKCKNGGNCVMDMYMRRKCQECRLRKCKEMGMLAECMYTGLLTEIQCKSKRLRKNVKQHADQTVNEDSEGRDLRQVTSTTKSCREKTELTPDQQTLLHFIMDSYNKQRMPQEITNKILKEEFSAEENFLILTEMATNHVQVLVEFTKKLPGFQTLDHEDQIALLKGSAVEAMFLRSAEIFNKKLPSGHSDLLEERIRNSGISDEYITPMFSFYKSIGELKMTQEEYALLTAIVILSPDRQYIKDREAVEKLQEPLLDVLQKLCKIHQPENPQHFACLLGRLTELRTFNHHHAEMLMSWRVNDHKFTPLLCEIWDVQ
Briefly: FXR responsive luciferase reporter gene assay (FXRE-luc + human FXR expression construct) in HepG2 cells. To be noted: HepG2, 24 h.
Text: as §1

For assay [4], the target named is T4, TGR5 (Homo sapiens, UniProt Q8TDU6).
T4 sequence (Q8TDU6 1-330): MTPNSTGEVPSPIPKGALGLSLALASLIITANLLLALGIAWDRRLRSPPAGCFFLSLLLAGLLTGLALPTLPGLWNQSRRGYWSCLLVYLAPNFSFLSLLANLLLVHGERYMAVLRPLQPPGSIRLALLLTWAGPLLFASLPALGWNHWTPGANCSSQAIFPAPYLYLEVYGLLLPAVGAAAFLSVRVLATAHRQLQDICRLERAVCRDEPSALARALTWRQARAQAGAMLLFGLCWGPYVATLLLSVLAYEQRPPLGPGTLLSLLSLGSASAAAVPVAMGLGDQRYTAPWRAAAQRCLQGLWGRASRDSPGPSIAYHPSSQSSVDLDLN
Briefly: TGR5 luciferase reporter assay. Particulars: relative activation to LCA 10 µM (100%), negative value indicates inverse agonism.

Assay [5] addresses T5, human LXRα (Homo sapiens, UniProt Q13133).
T5 construct: DNA constructs encoding human LBD domains of human PPARα, PPARγ, of LXRα (pGAL4-PPARα, pGAL4-PPARγ, pGAL4-LXRα); expressed in transfected cells; host or cells: HepG2
T5 sequence (Q13133 209-447 limits assumed): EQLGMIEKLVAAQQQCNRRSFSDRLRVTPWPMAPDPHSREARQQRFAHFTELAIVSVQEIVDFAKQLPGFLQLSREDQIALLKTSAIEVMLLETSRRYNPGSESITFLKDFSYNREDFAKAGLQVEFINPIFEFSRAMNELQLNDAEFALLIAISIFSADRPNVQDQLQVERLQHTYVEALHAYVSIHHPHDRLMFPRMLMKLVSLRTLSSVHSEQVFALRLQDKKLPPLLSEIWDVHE
Briefly: LXRα luciferase reporter gene assay, inhibition of activation by GW3965 (pGAL4-LXRα / pGL5-UAS 9x) in HepG2 cells. How it is done:
Bezafibrate, GW7647 and WY14643 are known PPARα ligands. […] GW3965 is known high-affinity LXRα ligand.
Inverse agonistic/antagonistic activities of tested compounds to LXRα receptor activated by the LXRα agonist GW3965(10 µM). […] Negative value indicates inverse agonism.
as §1

[6] abbreviates: HepG2, 24 h; read-out: LXRα antagonism.

Like-named read-outs stand apart in the source and are kept apart here.

What is called Emax is the greatest response seen or fitted, relative to the assay's reference. As for `COc1ccc2ncc(Oc3ccc(O[C@H](C)C(=O)O)cc3)nc2c1` [compound 70, (R)-2-(4-((7-Methoxyquinoxalin-2-yl)oxy)phenoxy)propanoic acid], the values for the Emax at 10 µM in assay [1], in assay [2] and in assay [3] were 0%, 10% and -2%, respectively.

Consider `C[C@@H](Oc1ccc(Oc2ccc3ccc(F)cc3n2)cc1)C(=O)O` [compound 41, (R)-2-(4-((7-Fluoroquinolin-2-yl)oxy)phenoxy)propanoic acid], for which the values for the Emax at 10 µM in assay [1], in assay [2] and in assay [3] were 7%, 1% and 1%, respectively.

As to `C[C@@H](Oc1ccc(Oc2cnc3ccc(Br)cc3n2)cc1)C(=O)O` [compound 65, (R)-2-(4-((7-Bromoquinoxalin-2-yl)oxy)phenoxy)propanoic acid], the Emax at 10 µM in assay [1] is 2%; in assay [4], -3%; in assay [2], 69%; in assay [3] it was -2%.

As to `CCOC(=O)C(C)Oc1ccc(NCc2ccc3c(Cl)cccc3n2)cc1` (stereo not drawn) [compound 85, Ethyl 2-(4-(((5-chloroquinolin-2-yl)methyl)amino)phenoxy)propanoate], the Emax at 10 µM in assay [1] is -6%; in assay [4], 30%; in assay [2], 1%; in assay [3] it was -1%.

As for `C[C@@H](Oc1ccc(Oc2cnc3cc(Cl)ccc3n2)cc1)C(=O)O` [compound 64, (R)-2-(4-((6-Chloroquinoxalin-2-yl)oxy)phenoxy)propanoic acid], the Emax at 10 µM in assay [3] amounted to 1%. Moreover, the inhibition at 10 µM in assay [5] (HepG2, 24 h, read-out: LXRα antagonism) is 17%.

Regarding `Cc1ccc2ncc(Oc3ccc(O[C@H](C)C(=O)O)cc3)nc2c1` [compound 66, (R)-2-(4-((7-Methylquinoxalin-2-yl)oxy)phenoxy)propanoic acid], the results for the Emax at 10 µM in assay [1], in assay [2] and in assay [3] were 2%, 1% and -3%, respectively.

For the molecule `CC(=O)Nc1ccc2ncc(Oc3ccc(O[C@H](C)C(=O)O)cc3)nc2c1` [compound 69, (R)-2-(4-((7-Acetamidoquinoxalin-2-yl)oxy)phenoxy)propanoic acid], the Emax at 10 µM in assay [1] turned out to be 1%; in assay [2] it was 46%; in assay [3] it was 3%.

As to `C[C@@H](Oc1ccc(Oc2ccc3c(C(F)(F)F)cccc3n2)cc1)C(=O)O` [compound 43, (R)-2-(4-((5-(Trifluoromethyl)quinolin-2-yl)oxy)phenoxy)propanoic acid], the Emax at 10 µM is -1% in assay [1], -5% in assay [2] and 1% in assay [3]. In assay [5] (setting [6]), the inhibition at 10 µM turned out to be 48%.

Turning to `C[C@@H](Oc1ccc(Oc2ccc3cc(Cl)ccc3n2)cc1)C(=O)O` [compound 36, (R)-2-(4-((6-Chloroquinolin-2-yl)oxy)phenoxy)propanoic acid], the Emax at 10 µM in assay [1] is 23%; in assay [2], -5%; in assay [3] it was 19%. Also, the inhibition at 10 µM in assay [5] (setting [6]) amounted to 36%.

Consider `C[C@@H](Oc1ccc(Oc2cnc3ccccc3n2)cc1)C(=O)O` [compound 62], for which the Emax at 10 µM is 2% in assay [1], 43% in assay [4], 0% in assay [2] and 7% in assay [3].

`CC(C)(Oc1ccc(Oc2ccc3ccc(Cl)cc3n2)cc1)C(=O)O` [compound 55, 2-(4-((7-Chloroquinolin-2-yl)oxy)phenoxy)-2-methylpropanoic acid]: the Emax at 10 µM is -2% in assay [1], -15% in assay [4], 1% in assay [2] and 0% in assay [3].

Consider `CC(Oc1ccc(NCc2ccc3c(Cl)cc(Cl)cc3n2)cc1)C(=O)O` (stereo not drawn) [compound 84, 2-(4-(((5,7-Dichloroquinolin-2-yl)methyl)amino)phenoxy)propanoic acid], for which the Emax at 10 µM is 1% in assay [1], 0% in assay [2] and -2% in assay [3]. Also, the inhibition at 10 µM in assay [5] (setting [6]) was 5%.

On to `C[C@@H](Oc1ccc(Oc2cnc3ccc(Cl)cc3n2)cc1)C(=O)O` [compound 63, (R)-2-(4-((7-Chloroquinoxalin-2-yl)oxy)phenoxy)propanoic acid], for which the Emax at 10 µM in assay [1] was 2%; in assay [4], 4%; in assay [2] it was 0%; in assay [3], -3%.

Turning to `CCOC(=O)[C@@H](C)Oc1ccc(Oc2ccc3c(Cl)cccc3n2)cc1` [compound 76, Ethyl (R)-2-(4-((5-chloroquinolin-2-yl)oxy)phenoxy)propanoate], in assay [3], the Emax at 10 µM worked out at 25%. In addition, the inhibition at 10 µM in assay [5] (setting [6]) came to 51%.

Consider `C[C@@H](Oc1ccc(Oc2ccc3ccc([N+](=O)[O-])cc3n2)cc1)C(=O)O` [compound 50, (R)-2-(4-((7-nitroquinolin-2-yl)oxy)phenoxy)propanoic acid], for which the Emax at 10 µM is 87% in assay [2] and 0% in assay [3].

With `CC(Oc1ccc(Nc2cnc3ccc(Cl)cc3n2)cc1)C(=O)O` (stereo not drawn) [compound 80, 2-(4-((7-chloroquinoxalin-2-yl)amino)phenoxy)propanoic acid], the Emax at 10 µM in assay [2] is 0%; in assay [3], -1%. The inhibition at 10 µM in assay [5] (setting [6]) turned out to be 66%.

With `C[C@@H](Oc1ccc(Oc2cnc3ccc(I)cc3n2)cc1)C(=O)O` [compound 68, (R)-2-(4-((7-Iodoquinoxalin-2-yl)oxy)phenoxy)propanoic acid], the Emax at 10 µM was 9% in assay [1], 11% in assay [4], 49% in assay [2] and -3% in assay [3].

Regarding `CC(=O)Nc1ccc2ncc(Oc3ccc(OCC(=O)O)cc3)nc2c1` [compound 73, 2-(4-((7-Acetamidoquinoxalin-2-yl)oxy)phenoxy)acetic acid], the Emax at 10 µM came to 1% in assay [1], 20% in assay [4], 59% in assay [2] and 6% in assay [3].

Regarding `CCc1ccc2ccc(Oc3ccc(O[C@H](C)C(=O)O)cc3)nc2c1` [compound 44, (R)-2-(4-((7-Ethylquinolin-2-yl)oxy)phenoxy)propanoic acid], the Emax at 10 µM in assay [1] is 4%; in assay [2], 0%; in assay [3], 15%. Besides, the inhibition at 10 µM in assay [5] (setting [6]) worked out at 7%.

As for `Cc1cc(C)c2ccc(Oc3ccc(O[C@H](C)C(=O)O)cc3)nc2c1` [compound 45, (R)-2-(4-((5,7-Dimethylquinolin-2-yl)oxy)phenoxy)propanoic acid], the Emax at 10 µM in assay [1] is 17%; in assay [2], 0%; in assay [3], 7%. Further, the inhibition at 10 µM in assay [5] (setting [6]) came to 43%.
